From US7169762B2, “Substance having physiological property, method for producing the same and uses thereof” (Amino Up Chemical Co., Ltd., priority 2001, dated 2007) come the findings set out here.

The test system of one assay is TNF-α, IFN-γ and IL-2. Kind of assay: cytokine concentrations in supernatant of ConA-stimulated spleen cell culture after oral administration to mice. The class given is in vivo, mouse. The conditions noted are these: 1 g/kg oral for 1 week, C57/BL6 mice, IL-2 in culture supernatant (FIGS. 1 to 3). Here is the method:
(§1) The physiological activity assays were performed by forcibly administering 1 g/kg of a sample to 6-week age male C57/BL6 mice for 1 week by oral route. Spleen cells and peritoneal exudate cells (PEC) were collected after sacrificing the animals. They were cultivated and assayed TNF-α, IFN-γ, and IL-2.
The collected mouse spleen was homogenized in DMEM medium and the homogenate was centrifuged at 4° C. (1,000 rpm, 5 minutes) To this was added ASK lysis buffer and the mixture was incubated (37° C., 3 minutes) in order to remove erythrocytes, followed by centrifugation (1,000 rpm, 5 minutes). To the spleen cells thus collected was added ConA at a final concentration of 10 μg/ml and cultivated in a microplate. After 15 hours, the culture supernatant was collected for assaying TNF-α, IFN-γ, and IL-2.
(§2) For both a) and b) above, a kit for assaying cytokine (Wako Pure Chemical Industries, Ltd.) was used.

Another assay deals with TNF-α and IFN-γ. Kind of assay: cytokine concentrations in supernatant of LPS-stimulated macrophage (PEC) culture after oral administration to mice. Format: in vivo, mouse. The conditions noted are these: 1 g/kg oral for 1 week, C57/BL6 mice; PEC macrophages + LPS 100 ng/ml, 4 hours. As for the experimental part: as §1
PEC (peritoneal exudate cells) collected from mouse abdominal cavity with physiological saline were centrifuged, (1,000 rpm, 10 minutes) to collect cells, which were used as macrophages. To the macrophages LPS (lipopoly saccharide) was added at a final concentration of 100 ng/ml and the cells were cultivated. After 4 hours, TNF-α, IFN-γ, and IL-2 in the culture supernatant were assayed.
as §2

The structures appear in SMILES notation.

With `CC(=O)c1occc1OC1OC(CO)C(O)C(O)C1O` [substance A, 2-acetyl-3-hydroxyfuran 3-O-α-D-glucopyranoside], the cytokine induction ability entry with TNF-α, IFN-γ and IL-2 is given as “considerable cytokine induction ability”. Moreover, the “cytokine induction ability, macrophage” value in the assay on TNF-α and IFN-γ is recorded as “high cytokine induction ability”.
